Measurements published in patent US11160816B2, “Composition for treatment of Alzheimer's disease” (GLOVIA COMPANY LIMITED, priority 2017, dated 2021).

Legend:
[1] = system: mild to moderate Alzheimer patients; details: 400 mg capsule 3 times per day for 180 days; cited from earlier work
[2] = system: oligodendrocyte precursor cells (OPCs); assay: Cultivation of oligodendrocyte precursor cells, phase-contrast observation of proliferation and differentiation (FIG. 2); format: cell-based, mice; details: final concentration of each 10 μM, cultivated for 48 hours, compared with control (PBS alone)
[3] = system: oligodendrocyte precursor cells (OPCs); assay: O1 antibody immunostaining of cultivated OPCs, ratio of O1 positive oligodendrocytes (FIG. 3); format: cell-based, mice; details: final concentration of each 0.1 mM, 48 hours, compared with control
stroke patients = details: cited from earlier work
[4] = system: oligodendrocyte progenitor cell; details: cultivation in the presence of the substance; cited from earlier work
[5] = stroke patients, nonpatent document 6

| Compound | cognitive function [1] | proliferation and differentiation of OPCs (phase-contrast photos) [2] | ratio of O1 positive oligodendrocytes against the number of total cells [3] | cognitive abilities (stroke patients; 1000 mg per day for 28 days, then oral 400 mg per day for 5 months, 2,044 stroke patients) | harmful adverse drug reactions, share of patients (stroke patients; [5]) [%] | headache, share of patients (stroke patients; [5]) [%] | heartburn, share of patients (stroke patients; [5]) [%] | insomnia/agitation, share of patients (stroke patients; [5]) [%] | patients who hoped for stop of treatment (stroke patients; [5]) [%] | vomiturition/emesis, share of patients (stroke patients; [5]) [%] | generation of p-21.5kDaMBP, proliferation and differentiation of oligodendrocyte progenitor cell [4] |
| --- | --- | --- | --- | --- | --- | --- | --- | --- | --- | --- | --- |
| C[N+](C)(C)CCOP(=O)([O-])OC[C@H](O)CO [α-GPC, L-α-glycerylphosphorylcholine] | improving effect on cognitive function | proliferation and differentiation of OPCs proceeds | hardly increases compared with the control | recovery of the patients' cognitive abilities | 2.14 | 0.2 | 0.7 | 0.4 | 0.7 | 0.5 | – |
| C[C@@H]1O[C@@H](OC[C@H]2O[C@@H](Oc3cc(O)c4c(c3)O[C@H](c3ccc(O)cc3)CC4=O)[C@H](O)[C@@H](O)[C@@H]2O)[C@H](O)[C@H](O)[C@H]1O [narirutin] | – | proliferation and differentiation of OPCs proceeds | – | – | – | – | – | – | – | – | promoted the generation of p-21.5kDaMBP |
| COc1ccc([C@@H]2CC(=O)c3c(O)cc(O[C@@H]4O[C@H](CO[C@@H]5O[C@@H](C)[C@H](O)[C@@H](O)[C@H]5O)[C@@H](O)[C@H](O)[C@H]4O)cc3O2)cc1O [hesperidin] | – | proliferation and differentiation of OPCs proceeds | – | – | – | – | – | – | – | – | promoted the generation of p-21.5kDaMBP |
